From publication PMC10587159, “Biosynthesis and engineering of the nonribosomal peptides with a C-terminal putrescine” (Nature Communications, 2023)
Non-standard residues stand in square brackets, D forms with d. Residues, ends and D or L forms follow the SMILES beside them. *: point of attachment. Lauroyl = CCCCCCCCCCCC(=O)*; NH(CH2)4NH2 = NCCCCN*

How the values were obtained:
[1] = system: HepG2 cells; experiment: Cell numbers of HepG2 after compound treatment; format: cell-based, human; details: HepG2, 1.5 × 10^5 cells/well plated, compound 5 μg/mL, 3 h; mean of n = 3
Experimental: Comparing the concentration of compounds (7, 10, 10a) in extracellular and intracellular after the HepG2 cell line dealt with compounds. HepG2 cells were plated in six-well plates at a density of 1.5 × 10^5 cells/well and grew overnight. After cell treated with compounds (5 μg/mL) for 3 h, the compounds were extracted with MeOH for cells culture medium and cells separately as followed the reported method. The compounds were quantified by LC‒MS (5%‒95% ACN in 15 min). The cell numbers of HepG2 with the compounds treatments was determined. […]
To determine whether the difference in bioactivity of products (with or without Put moiety) is due to variations in cellular uptake, we treated hepatoma cell line HepG2 with compounds 7 (C12 acyl), 10 (C14 acyl), and 10a (C14 acyl and without Put) (Supplementary Fig. 33c). The cells were treated for 3 h, and then culture medium and cells were extracted separately. LC-MS was used to detect and quantify the compounds.
At lower concentrations (5000 ng/mL, and 10,000 ng in total for each group), and […]
may be contributing to the differences in antitumor activity (Supplementary Fig. 33b).
This could be due to differences in the speed of cellu lar uptake or differences in drug metabolism rate, requiring further experimental investigation.

[2] = system: PvdQ-like acylase GdnD; experiment: Deacylation by acylase GdnD (cell lysate, LC-MS); format: biochemical, Schlegelella brevitalea DSM 7029; details: 100 μL E. coli cell lysate with GdnD, 5 μL 10 mM substrate, 30 °C; 7 and 8: 4 h, 16 h, 27 h; other substrates 16 h; boiled lysate as control
Experimental: The hydrolysis function of PvdQ-like acylase GdnD was tested. GdnD is predicted to be a periplasmic protein by PSORTb[13]. The collected pellet from 50 mL LB dissolved with 8 mL buffer C (50 mM Tris, 300 mM NaCl, 5 mM MgCl2, pH 7.6), and lysed by cell disruption. Then, one hundred microliter of the cell lysate was incubated with 5 μL 10 mM substrates 7 and 8 for 4 h, 16 h, and 27 h at 30 °C. The negative control was boiled cell lysate. The other substrates (13, 14, 15, 16, and 17) incubated with the cell lysate dealt for 16 h at 30 °C. Then, the reaction was stopped by the addition of the 100 μL MeOH, and the final mixture was checked by LC‒MS analysis (5%‒95% ACN in 15 min) according to the above condition.

[3] = system: native host DSM 7029; experiment: Inhibition zone test on the native host DSM 7029; format: cell-based, Schlegelella brevitalea DSM 7029; details: same method as for the seven tested strains
Source text: The two human acute lymphoblastic leukemia cells K562 and Kasumi, two human breast adenocarcinoma cells MCF7 and MDA-MB-231, human hepatoma cell HepG-2, human lung adenocarcinoma cell A549, human gastric cancer cell SGC-7901, human colon cancer cell HCT-116, human ovarian cancer cell line SKOV3, or human lung epithelial normal cell 2B were obtained from Beyotime Biotechnology and utilized to test the cytotoxicity of compounds by MTT assays as previous study. The anti-inflammatory effect of the compounds was detected by the influence on the increase in the level of nitric oxide caused by lipopolysaccharide (LPS) based on the classic Griess method. RAW 264.7 cells (Shanghai Institutes for Biological Science) were seeded in 96-well plates and incubated for 24 h. Then, cells were treated with compounds 29, 29a, 31, and 31a (0-80 μM) for 30 min, followed by co-treatment with LPS ([…]) for another 24 h. The Nitric Oxide assay kit with Griess reagents (Beyotime, Lot: S0021, Shanghai, China) was used to examine cellular supernatant nitrite accumulation, which represents cellular NO levels. The OD value of 540 nm absorbance was detected with a microplate reader. Their authentication in the laboratory was performed regularly based on morphology and gene/protein expression. […]

[4] = system: S. brevitalea DSM 7029 wild type; experiment: Biofilm formation of DSM 7029 wild type with compounds (crystal violet); format: cell-based, Schlegelella brevitalea DSM 7029
In short: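 CYMG medium inoculated 1:100 from overnight culture with compounds at 0.1 μg/μL; OD600 read hourly for 42 h with shaking. Biofilm quantified at 18 h and 36 h by 0.1% crystal violet staining, 95% ethanol elution, OD600. Pigment secretion measured as OD600 of cell-free supernatant.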

[5] = system: human cells Kasumi; experiment: MTT cytotoxicity assay, Kasumi; format: cell-based; details: 24 h
In short: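 Cytotoxicity in Kasumi, HepG-2, SGC-7901 and normal lung epithelial 2B cells, among other human tumour lines, was measured by MTT assay.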

[6] = system: human lung adenocarcinoma cell A549; experiment: MTT cytotoxicity assay, A549; format: cell-based; details: 24 h
In short: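 Compound cytotoxicity is assessed with the MTT method in human cancer cells and normal 2B lung epithelial cells.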

[7] = relative to wild type treated with H2O = 100%, crystal violet 0.1%, OD600, mean of n = 3

SMILES: CCCCCCCCCCCC(=O)N[C@H](CCSC)C(=O)N[C@H](CC(N)=O)C(=O)N1CCC[C@H]1C(=O)N[C@H](C(=O)N[C@H](Cc1ccccc1)C(=O)N1CCC[C@H]1C(=O)N[C@@H](Cc1c[nH]c2ccccc12)C(=O)N[C@@H](C(=O)N[C@@H](C)C(=O)N[C@H](C)C(=O)N[C@@H](CO)C(=O)N[C@@H](C)C(=O)NCCCCN)C(C)C)C(C)C [Compound 7, Glidonin G] (Lauroyl-[dM][dN]PV[dF]PW[dV]A[dA]SA-{NH(CH2)4NH2})
- The cell numbers, Average [1]: 1323333
- deacylation by GdnD, nonacylated product by LC-MS [2]: nonacylated products 1 and 2 were detected
- inhibition of native host DSM 7029, inhibition zone method [3]: no inhibition
- effect on biofilm formation of DSM 7029 wild type in words ([4]; crystal violet staining): increased biofilm formation
- biofilm formation 18 h, Average [4, 7]: 152.732%
- biofilm formation 36 h, Average [4, 7]: 138.926%
- IC50 [5]: 7.93 ± 0.35 µM
- IC50 [6]: 7.64 ± 1.11 µM
